Patent publication US11458189B2, “Cytoprotective drugs” (BALMES TRANSPLANTATION, priority 2017, dated 2022)
Starred links: 1 amine or outer side, 2 acyl side, 3 side chain; linkers in the order of their positions; H or OH if unused. Positions of bridges follow the written chain, without caps; N, C: chain ends. Non-standard residues stand in square brackets, D forms with d. Residues, ends and D or L forms follow the SMILES beside them. ξ: configuration not given here. *: point of attachment. hTyr(3S-OH,4S-OH,3'-OSO3H) = N[C@H](C(=O)O)[C@H](O)[C@@H](O)c1ccc(O)c(OS(=O)(=O)O)c1; pTerphenylCO(4''-OnC5H11) = CCCCCOc1ccc(-c2ccc(-c3ccc(C(=O)*)cc3)cc2)cc1; Orn(4R-OH,5R-OH) = O=C([C@H](C[C@@H](O)[C@@H](O)N[*:3])N[*:1])[*:2]; hTyr(3S-OH,4S-OH) = N[C@H](C(=O)O)[C@H](O)[C@@H](O)c1ccc(O)cc1; Pro(3S-OH,4S-Me) = C[C@H]1CN[C@H](C(=O)O)[C@H]1O; X1 = CCCCCOc1ccc(-c2cc(-c3ccc(C(=O)*)cc3)no2)cc1; Gln(3R-OH) = NC(=O)C[C@@H](O)[C@H](N)C(=O)O; ξPro(4R-OH) = O=C(O)C1C[C@@H](O)CN1; Hyp = O=C(O)[C@@H]1C[C@@H](O)CN1

System: Sprague Dawley rats
Test: Survival in acute renal failure model (unilateral renal ischemia-reperfusion with contralateral nephrectomy)
Format: in vivo, rat
Settings: up to 7 days after reperfusion, control group 29%
Experimental: The protocol is similar to the one described by Narayan P et al, Am J Physiol Renal Physiol, 311(2):F352-61, 2016 and was approved by an ethics committee. In summary, general anesthesia is induced in male Sprague Dawley rats (250-300 g) using sodium pentobarbital (60 mg/kg, ip) instead of ketamine/xylazine in the protocol described by Narayan P et al, Am J Physiol Renal Physiol, 311 (2): F352-61, 2016. A skin incision is made on the dorsal surface and the left kidney is exposed by incisions on the flank. The left renal pedicle is then isolated and clamped for 60 minutes using atraumatic vascular clamps. The kidneys are replaced in the abdominal cavity to maintain temperature and the incision is covered with gauze soaked in 0.9% saline. After the ischemia time (60 minutes), the clamps are released to begin reperfusion. Reperfusion is monitored (kidney color change) for 1 to 2 minutes and physiological saline (1 mL) is administered to prevent dehydration. Next, a right kidney nephrectomy is performed and the incisions are closed with sutures. The animals are kept at approximately 37° C. using a thermoregulated system during the operation. Buprenorphine (0.2 mg/kg sc) is administered before the animals are returned to their cages and once a day until 4 days after reperfusion. […]
The compounds Micafungin (0.25 mg/kg), Anidulafungin (0.35 mg/kg) or the combination of the compounds Micafungin (0.25 mg/kg) and Allopurinol (3 mg/kg) are administered solubilized in physiological saline as a single intravenous injection into the tail vein 60 (±15) minutes before the onset of ischemia. The volume of administration of the compounds is determined on the basis of the body weight (2 mL/kg) of each animal. […]
For each experiment the curve of the number of surviving animals versus the number of days post-ischemia-reperfusion (Kaplan-Meier curve) is shown. The x-axis is graduated from the first day =0 to the seventh day =6 The y-axis is graduated from 0% to 100% of the initial population of the analyzed group. […]

Compound	Surviving animals at end of Kaplan-Meier curve (% of initial population of the group) (Anidulafungin 0.35 mg/kg single iv injection 60 min before ischemia) [%]	Surviving animals at end of Kaplan-Meier curve (% of initial population of the group) (Micafungin 0.25 mg/kg single iv injection 60 min before ischemia) [%]
CCCCCOc1ccc(-c2ccc(-c3ccc(C(=O)N[C@H]4C[C@@H](O)[C@@H](O)NC(=O)[C@@H]5[C@@H](O)[C@@H](C)CN5C(=O)[C@H]([C@@H](C)O)NC(=O)[C@H]([C@H](O)[C@@H](O)c5ccc(O)cc5)NC(=O)C5C[C@@H](O)CN5C(=O)[C@H]([C@@H](C)O)NC4=O)cc3)cc2)cc1 (stereo partly drawn) [Anidulafungin] ({pTerphenylCO(4''-OnC5H11)}-[Orn(4R-OH,5R-OH)]T[ξPro(4R-OH)][hTyr(3S-OH,4S-OH)]T[Pro(3S-OH,4S-Me)]; lactam 1-C)	75	–
CCCCCOc1ccc(-c2cc(-c3ccc(C(=O)N[C@H]4C[C@@H](O)[C@@H](O)NC(=O)[C@@H]5[C@@H](O)[C@@H](C)CN5C(=O)[C@H]([C@H](O)CC(N)=O)NC(=O)[C@H]([C@H](O)[C@@H](O)c5ccc(O)c(OS(=O)(=O)O)c5)NC(=O)[C@@H]5C[C@@H](O)CN5C(=O)[C@H]([C@@H](C)O)NC4=O)cc3)no2)cc1 [Micafungin, {5-[(1S,2S)-2-[(3S,6S,9S,11R,15S,18S,20R,21R,24S,25S,26S)-3-[(1R)-2-carbamoyl-1-hydroxyethyl]-11,20,21,25-tetrahydroxy-15-[(1R)-1-hydroxyethyl]-26-methyl-2,5,8,14,17,23-hexaoxo-18-[(4-{5-[4-(pentyloxy)phenyl]-1,2-oxazol-3-yl}benzene)amido]-1,4,7,13,16,22-hexaazatricyclo[22.3.0.0]heptacosan-6-yl]-1,2-dihydroxyethyl]-2-hydroxyphenyl}oxidanesulfonic acid] (X1-[Orn(4R-OH,5R-OH)]T[Hyp][hTyr(3S-OH,4S-OH,3'-OSO3H)][Gln(3R-OH)][Pro(3S-OH,4S-Me)]; lactam 1-C)	–	67
